Results taken from publication PMC12073402, “A Selective MAP3K1 Inhibitor Facilitates Discovery of NPM1 as a Member of the Network” (Molecules, 2025).

Tests used:
Test in all cases: KiNativ kinome profiling in PANC-1 lysate
Type in all cases: binding
MAP3K1 = biological target: T1, MAP3K1 (Homo sapiens, UniProt Q13233)
T1 construct: endogenous in cells; host or cells: PANC-1 cell lysate
Text: (§1) To assess target engagement and selectivity, we opted to conduct a kinome screen (KiNativ) in PANC-1 cell lysates. This chemical proteomics (chemoproteomics) methodology allows for the evaluation of small-molecule binding to protein kinases in native systems such as cell lysates. KiNativ utilizes a soluble chemical probe comprising ATP linked to biotin through an acyl-phosphate bond. The probe covalently modifies conserved lysine residues found in the ATP binding site of essentially all protein kinases (Figure 2A). To profile a kinase inhibitor, cell lysates are treated with a vehicle control or inhibitor prior to addition of the desthiobiotin ATP probe. The ATP probe occupies the ATP binding site in the kinase, which enables the conserved lysines to be biotinylated. […] The cell lysates are digested with a protease (trypsin), biotinylated peptides are affinity-enriched on streptavidin beads, and the labeled peptides are analyzed by liquid chromatography–tandem MS (Figure 2B). If an inhibitor binds to a kinase, it competes with the ATP, thus resulting in a loss of that kinase-associated peptide signal, allowing for the quantitative measurement of inhibitor binding. Unlike recombinant enzyme assays, KiNativ IC50 values are a direct measure of active site binding instead of enzymatic activity.
(§2) Kinome profiling quantified the activity of 51-106 against >300 kinases in the PANC-1 cells. The results summarized in Figure 2C are the average of duplicate control and duplicate treated samples with 5 μM of 51-106 or DMSO.
(§3) KiNativ assay with 51-106.
(§4) ATP Loop: ATP binding loop
(§5) Activation Loop: Activation loop
(§6) ATP: ATP site in non-canonical kinase (e.g. lipid kinase)
(§7) Protein Kinase Domain: Other lysine within kinase domain, possibly not in ATP binding site
(§8) Other: Labeling of residue outside of the protein kinase domain, possibly not in ATP binding site
(§9) No change. NB = No Binding (≤ 0)
(§10) >100% increase in MS signal (>2 fold increase)
(§11) Data points inhibited […] & not considered significant are left uncolored
(§12) Note: This KiNativ dataset is the result of an analysis of duplicate treated samples and control samples.
(§13) The % changes in MS signals being reported are statistically significant (Student T -test score < 0.04)

PIK3C3 = biological target: T2, PIK3C3 (Homo sapiens, UniProt Q8NEB9); settings: ATP
T2 construct: endogenous in cells; host or cells: PANC-1 cell lysate
T2 sequence (Q8NEB9 whole entry): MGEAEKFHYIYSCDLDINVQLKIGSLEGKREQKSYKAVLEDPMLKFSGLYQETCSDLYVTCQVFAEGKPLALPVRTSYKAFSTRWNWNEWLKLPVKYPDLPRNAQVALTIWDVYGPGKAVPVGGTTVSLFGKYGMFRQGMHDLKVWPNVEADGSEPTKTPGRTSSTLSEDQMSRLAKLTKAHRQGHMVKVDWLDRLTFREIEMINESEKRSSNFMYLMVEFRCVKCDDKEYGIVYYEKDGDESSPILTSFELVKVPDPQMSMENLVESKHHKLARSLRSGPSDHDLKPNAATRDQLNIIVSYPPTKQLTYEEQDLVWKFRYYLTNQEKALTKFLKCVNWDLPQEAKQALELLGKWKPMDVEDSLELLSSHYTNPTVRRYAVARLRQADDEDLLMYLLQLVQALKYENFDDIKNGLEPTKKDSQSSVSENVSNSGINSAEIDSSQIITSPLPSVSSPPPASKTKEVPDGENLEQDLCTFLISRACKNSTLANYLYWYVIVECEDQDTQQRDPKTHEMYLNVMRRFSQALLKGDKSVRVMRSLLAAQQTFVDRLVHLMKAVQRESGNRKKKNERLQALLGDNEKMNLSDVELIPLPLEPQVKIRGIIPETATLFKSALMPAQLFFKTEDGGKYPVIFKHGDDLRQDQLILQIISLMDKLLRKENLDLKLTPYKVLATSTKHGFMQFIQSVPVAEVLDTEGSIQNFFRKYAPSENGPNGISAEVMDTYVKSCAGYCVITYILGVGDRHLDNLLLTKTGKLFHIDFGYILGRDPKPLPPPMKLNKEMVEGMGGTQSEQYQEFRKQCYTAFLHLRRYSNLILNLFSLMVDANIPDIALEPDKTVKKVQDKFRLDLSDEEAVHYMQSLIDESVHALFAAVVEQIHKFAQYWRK
Text: as §1, §2, §3, §4, §5, §6, §7, §8, §9, §10, §11, §12, §13

MARK3, MARK4 = settings: 5 µM; Lys1; EVAIKIIDK
Text: as §1, §2, §3, §4, §5, §6, §7, §8, §9, §10, §11, §12, §13

RSK1 domain1 = biological target: T3, RSK1 domain1 (Homo sapiens, UniProt Q15418); settings: ATP Loop
T3 construct: endogenous in cells; host or cells: PANC-1 cell lysate
Text: as §1, §2, §3, §4, §5, §6, §7, §8, §9, §10, §11, §12, §13

CCRK = biological target: T4, CCRK (Homo sapiens, UniProt Q8IZL9); settings: Lys2
T4 construct: endogenous in cells; host or cells: PANC-1 cell lysate
Text: as §1, §2, §3, §4, §5, §6, §7, §8, §9, §10, §11, §12, §13

PKCa, PKCg = settings: 5 µM; Other; NLIPMDPNGLSDPYVKLK
Text: as §1, §2, §3, §4, §5, §6, §7, §8, §9, §10, §11, §12, §13

PFTAIRE1 = biological target: T5, PFTAIRE1 (Homo sapiens, UniProt O94921); settings: Lys1
T5 construct: endogenous in cells; host or cells: PANC-1 cell lysate
Text: as §1, §2, §3, §4, §5, §6, §7, §8, §9, §10, §11, §12, §13

RAF1 = biological target: T6, RAF1 (Homo sapiens, UniProt P04049); settings: Lys2
T6 construct: endogenous in cells; host or cells: PANC-1 cell lysate
Text: as §1, §2, §3, §4, §5, §6, §7, §8, §9, §10, §11, §12, §13

MAST1, MAST2 = settings: 5 µM; Lys2; DLKPDNLLITSMGHIK
Text: as §1, §2, §3, §4, §5, §6, §7, §8, §9, §10, §11, §12, §13

MST1, MST2 = settings: 5 µM
Text: as §1, §2, §3, §4, §5, §6, §7, §8, §9, §10, §11, §12, §13

LYN = biological target: T7, LYN (Homo sapiens, UniProt P07948)
T7 construct: endogenous in cells; host or cells: PANC-1 cell lysate
T7 sequence (P07948 whole entry): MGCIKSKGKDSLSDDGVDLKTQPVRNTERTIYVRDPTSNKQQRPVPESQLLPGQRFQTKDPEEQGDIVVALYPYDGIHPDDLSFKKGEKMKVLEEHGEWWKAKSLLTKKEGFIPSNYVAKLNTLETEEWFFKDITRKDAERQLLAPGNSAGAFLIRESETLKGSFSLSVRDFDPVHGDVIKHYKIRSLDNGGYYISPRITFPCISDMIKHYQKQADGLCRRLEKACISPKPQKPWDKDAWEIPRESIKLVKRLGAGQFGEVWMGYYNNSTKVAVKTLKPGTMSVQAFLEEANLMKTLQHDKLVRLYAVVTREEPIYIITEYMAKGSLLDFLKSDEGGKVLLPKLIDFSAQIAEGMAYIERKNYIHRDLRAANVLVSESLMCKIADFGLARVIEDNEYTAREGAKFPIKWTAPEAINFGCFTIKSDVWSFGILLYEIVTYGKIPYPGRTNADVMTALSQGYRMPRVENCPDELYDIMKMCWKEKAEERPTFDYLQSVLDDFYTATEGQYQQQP
Text: as §1, §2, §3, §4, §5, §6, §7, §8, §9, §10, §11, §12, §13

YANK3 = biological target: T8, YANK3 (Homo sapiens, UniProt Q86UX6); settings: Lys2
T8 construct: endogenous in cells; host or cells: PANC-1 cell lysate
Text: as §1, §2, §3, §4, §5, §6, §7, §8, §9, §10, §11, §12, §13

MAP3K15, MAP3K5, MAP3K6 = settings: 5 µM; Lys1; IAIKEIPER
Text: as §1, §2, §3, §4, §5, §6, §7, §8, §9, §10, §11, §12, §13

MAST4 = biological target: T9, MAST4 (Homo sapiens, UniProt O15021); settings: Lys2
T9 construct: endogenous in cells; host or cells: PANC-1
Text: as §1, §2, §3, §4, §5, §6, §7, §8, §9, §10, §11, §12, §13

ILK = biological target: T10, ILK (Homo sapiens, UniProt Q13418)
T10 construct: we opted to conduct a kinome screen (KiNativ) in PANC-1 cell lysates; endogenous in cells; host or cells: PANC-1 cell lysate
T10 sequence (Q13418 whole entry): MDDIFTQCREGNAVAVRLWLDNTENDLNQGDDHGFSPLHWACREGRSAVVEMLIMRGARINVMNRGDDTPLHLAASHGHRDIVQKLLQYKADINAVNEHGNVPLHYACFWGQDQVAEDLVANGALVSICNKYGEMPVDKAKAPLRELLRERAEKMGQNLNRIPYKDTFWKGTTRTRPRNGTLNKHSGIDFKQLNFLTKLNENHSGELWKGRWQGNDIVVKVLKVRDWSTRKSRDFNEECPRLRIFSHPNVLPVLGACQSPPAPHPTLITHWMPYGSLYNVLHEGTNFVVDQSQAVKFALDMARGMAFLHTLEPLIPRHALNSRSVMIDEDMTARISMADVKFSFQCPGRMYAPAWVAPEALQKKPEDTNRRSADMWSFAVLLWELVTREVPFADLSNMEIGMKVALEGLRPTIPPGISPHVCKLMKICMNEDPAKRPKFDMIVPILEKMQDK
Text: as §1, §2, §3, §4, §5, §6, §7, §8, §9, §10, §11, §12, §13

PIP4K2A = biological target: T11, PIP4K2A (Homo sapiens, UniProt P48426); settings: ATP
T11 construct: endogenous in cells; host or cells: PANC-1 cell lysate
T11 sequence (P48426 whole entry): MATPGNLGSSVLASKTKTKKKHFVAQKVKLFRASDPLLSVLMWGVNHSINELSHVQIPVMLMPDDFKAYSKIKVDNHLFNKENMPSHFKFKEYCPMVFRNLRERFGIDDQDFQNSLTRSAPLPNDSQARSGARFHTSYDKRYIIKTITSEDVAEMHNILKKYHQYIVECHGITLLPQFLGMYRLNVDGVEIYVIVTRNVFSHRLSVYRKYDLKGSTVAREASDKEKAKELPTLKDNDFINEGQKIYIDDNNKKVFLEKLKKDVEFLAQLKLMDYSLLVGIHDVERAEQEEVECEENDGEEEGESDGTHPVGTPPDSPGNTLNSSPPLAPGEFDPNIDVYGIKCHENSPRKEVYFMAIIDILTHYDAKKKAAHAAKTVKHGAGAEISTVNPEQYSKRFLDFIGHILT
Text: as §1, §2, §3, §4, §5, §6, §7, §8, §9, §10, §11, §12, §13

[1] = system: CaMK2a, CaMK2b, CaMK2d, CaMK2g; settings: 5 µM; Lys2; DLKPENLLLASK
Text: as §1, §2, §3, §4, §5, §6, §7, §8, §9, §10, §11, §12, §13

STLK5 = biological target: T12, STLK5 (Homo sapiens, UniProt Q7RTN6)
T12 construct: endogenous in cells; host or cells: PANC-1 cell lysate
T12 sequence (Q7RTN6 whole entry): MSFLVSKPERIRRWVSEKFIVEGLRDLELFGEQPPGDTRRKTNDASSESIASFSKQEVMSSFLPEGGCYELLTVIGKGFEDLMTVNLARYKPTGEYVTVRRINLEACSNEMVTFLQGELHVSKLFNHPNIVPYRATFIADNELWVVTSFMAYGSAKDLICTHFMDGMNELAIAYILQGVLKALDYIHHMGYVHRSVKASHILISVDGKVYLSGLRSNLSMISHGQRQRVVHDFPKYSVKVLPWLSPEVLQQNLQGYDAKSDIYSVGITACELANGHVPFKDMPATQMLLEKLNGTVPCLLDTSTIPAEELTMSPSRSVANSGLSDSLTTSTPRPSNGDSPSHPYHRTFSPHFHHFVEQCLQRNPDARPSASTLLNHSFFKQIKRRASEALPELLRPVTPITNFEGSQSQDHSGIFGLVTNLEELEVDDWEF
Text: as §1, §2, §3, §4, §5, §6, §7, §8, §9, §10, §11, §12, §13

EphB2 = biological target: T13, EphB2 (Homo sapiens, UniProt P29323); settings: ATP Loop
T13 construct: endogenous in cells; host or cells: PANC-1 lysate
Text: as §1, §2, §3, §4, §5, §6, §7, §8, §9, §10, §11, §12, §13

CDK7 = biological target: T14, CDK7 (Homo sapiens, UniProt P50613)
T14 construct: endogenous in cells; host or cells: PANC-1 cell lysate
T14 sequence (P50613 whole entry): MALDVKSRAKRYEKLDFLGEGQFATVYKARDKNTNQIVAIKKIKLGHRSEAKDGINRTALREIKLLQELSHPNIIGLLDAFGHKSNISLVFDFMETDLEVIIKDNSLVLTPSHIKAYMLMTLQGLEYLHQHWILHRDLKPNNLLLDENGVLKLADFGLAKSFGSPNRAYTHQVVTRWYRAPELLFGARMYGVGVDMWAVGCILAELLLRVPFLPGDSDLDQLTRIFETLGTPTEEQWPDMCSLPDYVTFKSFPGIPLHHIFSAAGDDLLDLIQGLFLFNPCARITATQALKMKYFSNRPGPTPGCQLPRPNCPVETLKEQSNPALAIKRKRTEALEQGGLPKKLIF
Text: as §1, §2, §3, §4, §5, §6, §7, §8, §9, §10, §11, §12, §13

PKD1, PKD2 = settings: 5 µM; Lys2; NIVHCDLKPENVLLASADPFPQVK
Text: as §1, §2, §3, §4, §5, §6, §7, §8, §9, §10, §11, §12, §13

NEK2 = biological target: T15, NEK2 (Homo sapiens, UniProt P51955); settings: Lys2
T15 construct: endogenous in cells; host or cells: PANC-1 cell lysate
Text: as §1, §2, §3, §4, §5, §6, §7, §8, §9, §10, §11, §12, §13

PKD2 = biological target: T16, PKD2 (Homo sapiens, UniProt Q9BZL6); settings: Lys1
T16 construct: endogenous in cells; host or cells: PANC-1 cell lysate
Text: as §1, §2, §3, §4, §5, §6, §7, §8, §9, §10, §11, §12, §13

PCTAIRE1 = biological target: T17, PCTAIRE1 (Homo sapiens, UniProt Q00536); settings: Lys1
T17 construct: endogenous in cells; host or cells: PANC-1 cell lysate
T17 sequence (Q00536 whole entry): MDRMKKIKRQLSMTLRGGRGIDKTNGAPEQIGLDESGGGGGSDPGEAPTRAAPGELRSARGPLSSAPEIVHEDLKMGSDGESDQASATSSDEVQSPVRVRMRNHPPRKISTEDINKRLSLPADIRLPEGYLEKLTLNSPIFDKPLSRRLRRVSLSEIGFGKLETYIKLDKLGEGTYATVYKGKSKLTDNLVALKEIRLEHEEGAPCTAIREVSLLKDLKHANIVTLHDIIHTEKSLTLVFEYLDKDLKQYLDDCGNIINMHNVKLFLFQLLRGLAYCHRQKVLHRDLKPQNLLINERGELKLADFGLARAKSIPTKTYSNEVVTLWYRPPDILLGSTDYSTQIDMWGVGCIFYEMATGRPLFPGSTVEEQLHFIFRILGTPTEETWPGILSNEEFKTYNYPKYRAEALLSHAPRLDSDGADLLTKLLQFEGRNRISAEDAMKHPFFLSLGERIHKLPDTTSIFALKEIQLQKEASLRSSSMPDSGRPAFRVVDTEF
Text: as §1, §2, §3, §4, §5, §6, §7, §8, §9, §10, §11, §12, §13

T1 sequence (Q13233 whole entry): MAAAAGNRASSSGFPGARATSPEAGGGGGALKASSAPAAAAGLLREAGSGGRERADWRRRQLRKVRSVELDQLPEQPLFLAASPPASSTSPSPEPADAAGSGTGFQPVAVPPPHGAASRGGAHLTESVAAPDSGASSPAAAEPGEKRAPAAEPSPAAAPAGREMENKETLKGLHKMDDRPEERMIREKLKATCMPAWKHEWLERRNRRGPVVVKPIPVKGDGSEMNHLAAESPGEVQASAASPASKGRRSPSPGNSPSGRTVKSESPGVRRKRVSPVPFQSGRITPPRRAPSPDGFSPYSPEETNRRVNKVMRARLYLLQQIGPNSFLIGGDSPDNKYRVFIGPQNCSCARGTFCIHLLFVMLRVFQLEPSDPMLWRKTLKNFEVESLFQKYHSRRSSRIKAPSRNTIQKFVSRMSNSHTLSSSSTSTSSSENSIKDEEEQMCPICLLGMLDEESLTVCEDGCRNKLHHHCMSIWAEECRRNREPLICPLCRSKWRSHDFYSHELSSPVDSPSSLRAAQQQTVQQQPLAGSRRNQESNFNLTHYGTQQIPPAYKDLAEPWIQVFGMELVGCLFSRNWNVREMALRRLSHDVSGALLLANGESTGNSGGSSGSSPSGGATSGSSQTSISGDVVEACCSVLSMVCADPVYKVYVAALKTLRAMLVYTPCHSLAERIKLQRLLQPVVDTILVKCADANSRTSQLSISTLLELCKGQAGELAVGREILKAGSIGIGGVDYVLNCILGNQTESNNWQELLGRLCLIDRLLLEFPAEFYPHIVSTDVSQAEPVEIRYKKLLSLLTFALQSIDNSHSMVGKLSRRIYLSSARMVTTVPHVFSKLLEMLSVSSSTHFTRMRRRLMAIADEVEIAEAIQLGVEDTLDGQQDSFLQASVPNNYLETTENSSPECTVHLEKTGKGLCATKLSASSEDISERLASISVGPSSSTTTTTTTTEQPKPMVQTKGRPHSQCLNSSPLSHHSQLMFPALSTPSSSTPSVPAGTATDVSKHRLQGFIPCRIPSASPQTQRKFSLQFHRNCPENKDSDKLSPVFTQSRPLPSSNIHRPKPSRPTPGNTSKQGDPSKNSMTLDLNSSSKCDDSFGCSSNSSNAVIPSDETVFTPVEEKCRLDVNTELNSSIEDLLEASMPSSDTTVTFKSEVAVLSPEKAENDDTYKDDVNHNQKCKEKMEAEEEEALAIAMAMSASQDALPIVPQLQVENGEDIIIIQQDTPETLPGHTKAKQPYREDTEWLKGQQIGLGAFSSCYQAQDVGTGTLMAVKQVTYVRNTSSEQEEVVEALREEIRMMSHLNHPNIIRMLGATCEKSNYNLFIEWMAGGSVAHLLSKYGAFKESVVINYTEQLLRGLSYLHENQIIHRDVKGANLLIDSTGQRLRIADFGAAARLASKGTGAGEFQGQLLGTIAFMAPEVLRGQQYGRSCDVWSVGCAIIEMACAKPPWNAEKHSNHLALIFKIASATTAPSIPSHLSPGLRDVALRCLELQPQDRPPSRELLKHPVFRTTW

In the case of `Cn1cc(-c2cnc3ccc(NC(=O)Nc4ccc(F)c(C(F)(F)F)c4)cc3n2)cn1` [51-106, 1-(4-Fluoro-3-(trifluoromethyl)phenyl)-3-(3-(1-methyl-1H-pyrazol-4-yl)quinoxalin-6-yl)urea], the “MAP3K1 inhibition compared to any other kinase in the panel” value (MAP3K1; 5 μM, 328 quantified kinases) is reported as 2.5 fold, the “% Inhibition” value (MAP3K1; 5 µM, Lys2, DVKGANLLIDSTGQR) is reported as 78% and the inhibition at 5 µM (MAP3K1; 5 µM, Lys2, DVKGANLLIDSTGQR) is reported as 78.1%. For the same molecule, the inhibition at 5 µM (PIK3C3; TEDGGKYPVIFKHGDDLR) was 4.9%, the inhibition at 5 µM (PIK3C3; TEDGGKYPVIFKHGDDLRQDQLILQIISLMDK) was ≤ 0% and the “% Inhibition” value (MARK3, MARK4) was “NB (NB = No Binding (≤ 0))”. The inhibition at 5 µM (RSK1 domain1) was ≤ 0%, the inhibition at 5 µM (CCRK) was 4.5% and the “% Inhibition” value (PKCa, PKCg) was “NB (NB = No Binding (≤ 0))”. For the same molecule, the inhibition at 5 µM (PFTAIRE1) was 7.7%, the inhibition at 5 µM (RAF1) was ≤ 0% and the “% Inhibition” value (MAST1, MAST2) was “NB (NB = No Binding (≤ 0))”. For the same molecule, the “% Inhibition” value (MST1, MST2; ATP Loop, LADFGVAGQLTDTMAKR) was 2.7%, the “% Inhibition” value (MST1, MST2; Lys2, DIKAGNILLNTEGHAK) was “NB (NB = No Binding (≤ 0))” and the inhibition at 5 µM (LYN; ATP Loop, EGAKFPIKWTAPEAINFGCFTIK) was ≤ 0%. For the same molecule, the inhibition at 5 µM (LYN; Lys1, VAVKTLKPGTMSVQAFLEEANLMK) was 1.8%, the inhibition at 5 µM (YANK3) was ≤ 0% and the “% Inhibition” value (MAP3K15, MAP3K5, MAP3K6) was “NB (NB = No Binding (≤ 0))”. For the same molecule, the inhibition at 5 µM (MAST4) was ≤ 0%, the “% Inhibition” value (ILK; 5 µM, Protein Kinase Domain, ISMADVKFSFQCPGR) was “NB (NB = No Binding (≤ 0))” and the inhibition at 5 µM (ILK; Lys1, […]) was ≤ 0%. The inhibition at 5 µM (PIP4K2A; AKELPTLKDNDFINEGQK) was ≤ 0%, the inhibition at 5 µM (PIP4K2A; YIIKTITSEDVAEMHNILK) was 4.5% and the “% Inhibition” value [1] was “NB (NB = No Binding (≤ 0))”. For the same molecule, the “% Inhibition” value (STLK5; 5 µM, Lys2, SVKASHILISVDGK) was “NB (NB = No Binding (≤ 0))”, the inhibition at 5 µM (STLK5; ATP Loop, […]) was ≤ 0% and the inhibition at 5 µM (EphB2) was ≤ 0%. The inhibition at 5 µM (CDK7; Lys1, DKNTNQIVAIKK) was 16.6%, the inhibition at 5 µM (CDK7; Lys2, DLKPNNLLLDENGVLK) was 1.6% and the “% Inhibition” value (PKD1, PKD2) was “NB (NB = No Binding (≤ 0))”. For the same molecule, the inhibition at 5 µM (NEK2) was ≤ 0%, the inhibition at 5 µM (PKD2) was 10.6% and the inhibition at 5 µM (PCTAIRE1) was ≤ 0%.
